Reference: patent EP4371563A1, “COMBINATIONS OF LAROTRECTINIB AND MODERATE CYP3A4 INDUCERS” (Bayer Consumer Care AG, priority 2022, dated 2024)

Key:
[1] = Observed larotrectinib plasma exposure after a single oral dose with and without itraconazole or rifampicin; format: in vivo, human; conditions: for AUC / Cmax: human, plasma, po
Description: A comparison was made between mean simulated and observed plasma concentrations of larotrectinib following a single oral dose of 100 mg larotrectinib in the absence of and co-administered with itraconazole on the 5th day of 7 days of dosing (200 mg QD). Simulated Cmax and AUC and corresponding ratios for larotrectinib are shown below. […] A comparison was made between mean simulated and observed plasma concentrations of larotrectinib following a single oral dose of 100 mg larotrectinib in the absence of and co-administered with rifampicin on the 10th day of 11 days of dosing (600 mg QD). Simulated Cmax and AUC and corresponding ratios for larotrectinib are shown below.

[2] = In silico model: simulated larotrectinib plasma exposure after a single oral dose with and without itraconazole or rifampicin (model verification against observed data); parameters: species or system human
Description: The effect of different CYP3A4 inhibitors and inducers on the pharmacokinetics of larotrectinib was evaluated using an in silico model. The following drugs were included in the study: The model was correlated by comparison of simulated and observed plasma concentrations in both healthy subjects and cancer patients for midazolam, testosterone, and several of the tested drugs, including larotrectinib alone, larotrectinib + intraconazole, larotrectinib + rifampicin. The following virtual trials were conducted: 12 healthy subjects (50% female) aged 20 to 55 years receiving larotrectinib (100 mg BID) for 14 days in the absence of itraconazole and coadminstered with itraconazole (tablets in fed state; 200 mg QD). A comparison was made between mean simulated and observed plasma concentrations of larotrectinib following a single oral dose of 100 mg larotrectinib in the absence of and co-administered with itraconazole on the 5th day of 7 days of dosing (200 mg QD). Simulated Cmax and AUC and corresponding ratios for larotrectinib are shown below. […] A comparison was made between mean simulated and observed plasma concentrations of larotrectinib following a single oral dose of 100 mg larotrectinib in the absence of and co-administered with rifampicin on the 10th day of 11 days of dosing (600 mg QD). Simulated Cmax and AUC and corresponding ratios for larotrectinib are shown below.

[3] = Observed larotrectinib exposure at 100 mg BID without CYP3A4 perpetrators; conditions: in vivo, 100 mg BID larotrectinib in the absence of any CYP3A4 perpetrators
Description: 100 mg BID larotrectinib was administered in the absence of any CYP3A4 perpetrators.

[4] = Observed, plus rifampicin 600 mg QD / control, single oral dose 100 mg larotrectinib, interval in brackets
[5] = coadministration of larotrectinib with rifampicin (600 mg QD)
[6] = 100 mg, Observed, Control: single oral dose 100 mg larotrectinib in absence of itraconazole, healthy subjects
[7] = 100 mg, Observed, Control: single oral dose 100 mg larotrectinib in absence of rifampicin
[8] = Observed, single oral dose 100 mg larotrectinib plus itraconazole 200 mg QD (5th day of 7 days), healthy subjects
[9] = Observed, single oral dose 100 mg larotrectinib plus rifampicin 600 mg QD (10th day of 11 days)

- Ratio AUC [1, 4]: 0.19 (0.16, 0.24)
- Ratio Cmax [1, 4]: 0.29 (0.23, 0.37)
- observed reduction in exposure of larotrectinib, AUC [1, 5]: 81%
- observed reduction in exposure of larotrectinib, Cmax [1, 5]: 71%
- AUC [1, 6]: 1280 ng·h/mL
- Cmax [1, 6]: 497 ng/mL
- AUC [1, 7]: 1340 ng·h/mL
- Cmax [1, 7]: 435 ng/mL
- AUC [1, 8]: 5520 ng·h/mL
- Cmax [1, 8]: 1400 ng/mL
- AUC [1, 9]: 259 ng·h/mL
- Cmax [1, 9]: 133 ng/mL
- P/O Ratio AUC ([2]; predicted/observed of the AUC ratio plus itraconazole / control): 1.04
- P/O Ratio AUC ([2]; predicted/observed of the AUC ratio plus rifampicin / control): 0.79
- P/O Ratio Cmax ([2]; predicted/observed of the Cmax ratio plus itraconazole / control): 0.79
- P/O Ratio Cmax ([2]; predicted/observed of the Cmax ratio plus rifampicin / control): 0.76
- AUC [3]: 1590 ng·h/mL
- Cmax [3]: 624 ng/mL
SMILES: O=C(Nc1cnn2ccc(N3CCC[C@@H]3c3cc(F)ccc3F)nc12)N1CC[C@H](O)C1 [larotrectinib]
